This note sets out measurements from publication PMC8362182, “Acetylenic Replacement of Albicidin's Methacrylamide Residue Circumvents Detrimental E/Z Photoisomerization and Preserves Antibacterial Activity” (Chemistry (Weinheim an Der Bergstrasse, Germany), 2021).

Converted amounts (≈) assume the structure as drawn. Read-outs that look alike come from different tables or passages of the source. A value given as a limit tells only on which side of the number the result lay.

Assay [1] deals with T1, E. coli DNA gyrase (Escherichia coli, UniProt P0AES4+P0AES6).
T1 construct: gene gyrA; holoenzyme A2B2 (known biology)
As to the kind of experiment: DNA gyrase supercoiling assay. The assay is classed as biochemical. Particulars: tested at 45 nM.

Assay [2] deals with T2, E. coli DSM1116.
T2 construct: DSM1116
As to the kind of experiment: microbe, parasite or virus in culture. Details: broth microdilution MIC in Mueller-Hinton Broth II, CLSI M07-A9. The protocol: (§1) 2 Procedures for Biological Assays. Microdilution Assay. Minimal inhibitory concentration (MIC) values were determined according to the ninth edition of the Approved Standard M07-A9. The test was carried out for six different bacterial strains (E.coli DSM1116 [Gram-negative], E. coli BW25113 [Gram-negative], B. subtilis DSM10 [Gram-postive], M. luteus DSM1790 [Gram-postive], M. phlei DSM750 [Gram-postive], S. typhimurium TA100 [Gram-negative]. 20 µL of cryo stock of each strain were inoculated in 20 mL LB medium (Lysogeny broth: 10 g/L peptone, 5 g/L yeast extract, 5 g/L NaCl) followed by incubation overnight at 37 °C, 200 rpm. The test inoculum was adjusted by the 0.5 McFarland Standard (OD625 from 0.08 to 0.1). Within 15 min of preparation, the adjusted inoculum suspension was diluted in MHBII (BBLTM Mueller-Hinton Broth II, Becton, Dickinson and Company, New Jersey, USA) so that each well contained approximately 5 × 10^5 CFU/mL in a final volume of 100 µL. 95 µL of the inoculum were applied per well and 5 µL of the (diluted) antibiotic substance were added. Previously, the dry antibiotic compounds (1 to 15 and antibiotic control Ciprofloxacin (CIP)) were dissolved in DMSO (100%) with a concentration of 2560 µg/mL, and the so obtained stock solutions were further diluted in DMSO (100%). 5 µL of each antibiotic dilution were applied to the microdilution tray to reach final concentrations of 8 µg/mL to 0.016 µg/mL. One row of each well plate served as a growth control without antibiotic substances and another row of the microdilution tray served as sterility control (only MHB II-media). The antimicrobial effect of the solvent (DMSO) was tested by adding 5 µL DMSO to several wells. […] After UV exposure, we observed a second resonance set mainly for signals arising from residues MCA and pABA‐1. The new signals for the methyl, vinyl and aromatic protons of MCA were clearly shifted up‐field. To provide evidence that the second resonance set arose from the Z isomer, we performed 2D nuclear Overhauser enhancement (NOE) measurements, which unambiguously confirmed the expected atomic distances in the two isomeric states (Figure S1 in the Supporting Information). While only a small portion of the initial E state (t=0 h) was converted after t=2.5 h, an almost complete conversion to the Z isomer was detected after t=16 h. […] After 32 h, however, the equilibrium had also been reached and approximately 65 % of the fluoro analogue adopted the Z‐isomeric form (Figure S2). It is important to note that significant accumulation of the (Z)‐isomer also occurred when albicidin samples were exposed to sunlight (ca. 50 and 80 % Z after 32 and 160 h daylight, respectively) underlining the vulnerability of 1 during routine handling. These findings became even more relevant when we determined minimal inhibitory concentrations (MICs) against a panel of bacteria (Table S1). […] The fact, that the albicidin producer X. albilineans inhabits the xylem of sugar cane, which is exposed to sunlight, could severely impact the stability of albicid

The subject of assay [3] is T3, S. typhimurium TA100.
T3 construct: TA100
As to the kind of experiment: microbe, parasite or virus in culture. On the set-up: broth microdilution MIC in Mueller-Hinton Broth II, CLSI M07-A9. The settings on record: Salmonella enterica. The protocol:
as §1

Assay [4] relates to T4, E. coli BW25113.
T4 construct: BW25113
The assay is described as follows: microbe, parasite or virus in culture. Details: broth microdilution MIC in Mueller-Hinton Broth II, CLSI M07-A9. Particulars: Escherichia coli. The protocol:
as §1

For assay [5], the system named is T5, M. luteus DSM1790.
T5 construct: DSM1790
As to the kind of experiment: microbe, parasite or virus in culture. Particulars: Micrococcus luteus. Details: broth microdilution MIC in Mueller-Hinton Broth II, CLSI M07-A9. The protocol:
as §1

The test system of assay [6] is T6, B. subtilis DSM10.
T6 construct: DSM10
As to the kind of experiment: microbe, parasite or virus in culture. The settings on record: Bacillus subtilis. Details: broth microdilution MIC in Mueller-Hinton Broth II, CLSI M07-A9. The protocol: as §1

Assay [7] relates to T3, S. typhimurium TA100. The assay is described as follows: microbe, parasite or virus in culture. Details: broth microdilution MIC, CLSI M07-A9, MHB II. The settings on record: Salmonella enterica. The protocol:
(§2) 2 Procedures for Biological Assays. Microdilution Assay. Minimal inhibitory concentration (MIC) values were determined according to the ninth edition of the Approved Standard M07-A9. The test was carried out for six different bacterial strains (E.coli DSM1116 [Gram-negative], E. coli BW25113 [Gram-negative], B. subtilis DSM10 [Gram-postive], M. luteus DSM1790 [Gram-postive], M. phlei DSM750 [Gram-postive], S. typhimurium TA100 [Gram-negative]. 20 µL of cryo stock of each strain were inoculated in 20 mL LB medium (Lysogeny broth: 10 g/L peptone, 5 g/L yeast extract, 5 g/L NaCl) followed by incubation overnight at 37 °C, 200 rpm. The test inoculum was adjusted by the 0.5 McFarland Standard (OD625 from 0.08 to 0.1). Within 15 min of preparation, the adjusted inoculum suspension was diluted in MHBII (BBLTM Mueller-Hinton Broth II, Becton, Dickinson and Company, New Jersey, USA) so that each well contained approximately 5 × 10^5 CFU/mL in a final volume of 100 µL. 95 µL of the inoculum were applied per well and 5 µL of the (diluted) antibiotic substance were added. Previously, the dry antibiotic compounds (1 to 15 and antibiotic control Ciprofloxacin (CIP)) were dissolved in DMSO (100%) with a concentration of 2560 µg/mL, and the so obtained stock solutions were further diluted in DMSO (100%). 5 µL of each antibiotic dilution were applied to the microdilution tray to reach final concentrations of 8 µg/mL to 0.016 µg/mL. One row of each well plate served as a growth control without antibiotic substances and another row of the microdilution tray served as sterility control (only MHB II-media). The antimicrobial effect of the solvent (DMSO) was tested by adding 5 µL DMSO to several wells. Purity check and cell titer control were performed according to International Standard M07-

For assay [8], the system named is T4, E. coli BW25113. The assay is described as follows: microbe, parasite or virus in culture. On the set-up: broth microdilution MIC, CLSI M07-A9, MHB II. Particulars: Escherichia coli. The protocol: as §2
The test system of assay [9] is T5, M. luteus DSM1790. As to the kind of experiment: microbe, parasite or virus in culture. Particulars: Micrococcus luteus. Details: broth microdilution MIC, CLSI M07-A9, MHB II. As for the experimental part: as §2
For assay [10], the system named is T6, B. subtilis DSM10. The assay is described as follows: microbe, parasite or virus in culture. Details: broth microdilution MIC, CLSI M07-A9, MHB II. Particulars: Bacillus subtilis. As for the experimental part: as §2
For assay [11], the system named is T2, E. coli DSM1116. As to the kind of experiment: microbe, parasite or virus in culture. Details: broth microdilution MIC, CLSI M07-A9, MHB II. The settings on record: Escherichia coli. The protocol:
as §2

[12] abbreviates: Escherichia coli, DSM1116, read-out: MIC.

T1 sequence (P0AES4 2-875, one chain of several): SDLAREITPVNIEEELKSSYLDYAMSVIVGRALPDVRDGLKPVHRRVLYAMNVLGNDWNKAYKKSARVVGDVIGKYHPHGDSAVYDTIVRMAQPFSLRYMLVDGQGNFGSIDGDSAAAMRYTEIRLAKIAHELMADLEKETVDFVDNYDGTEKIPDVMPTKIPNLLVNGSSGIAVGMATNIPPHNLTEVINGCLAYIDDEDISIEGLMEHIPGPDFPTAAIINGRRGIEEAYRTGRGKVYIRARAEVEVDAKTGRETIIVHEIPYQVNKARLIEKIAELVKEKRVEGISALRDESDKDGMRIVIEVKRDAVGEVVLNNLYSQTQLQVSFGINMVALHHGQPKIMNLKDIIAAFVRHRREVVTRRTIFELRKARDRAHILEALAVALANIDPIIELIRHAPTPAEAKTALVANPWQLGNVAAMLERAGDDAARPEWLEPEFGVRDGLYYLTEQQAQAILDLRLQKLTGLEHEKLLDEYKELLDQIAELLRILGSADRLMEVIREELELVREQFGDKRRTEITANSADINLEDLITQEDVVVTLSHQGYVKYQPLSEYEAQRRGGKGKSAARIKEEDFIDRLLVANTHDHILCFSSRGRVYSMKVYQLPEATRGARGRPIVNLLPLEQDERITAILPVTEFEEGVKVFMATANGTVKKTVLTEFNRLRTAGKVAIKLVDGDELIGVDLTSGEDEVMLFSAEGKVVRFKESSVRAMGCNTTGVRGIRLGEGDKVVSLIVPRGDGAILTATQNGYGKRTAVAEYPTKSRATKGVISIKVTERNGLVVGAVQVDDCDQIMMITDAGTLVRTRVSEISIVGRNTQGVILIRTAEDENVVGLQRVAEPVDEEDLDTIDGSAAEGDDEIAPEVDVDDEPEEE

On to `COc1c(NC(=O)c2ccc(NC(=O)c3ccc(NC(=O)[C@H](CC#N)NC(=O)c4ccc(NC(=O)/C(C)=C\c5ccc(O)cc5)cc4)cc3)c(OC)c2O)ccc(C(=O)O)c1O` [Z isomer of albicidin], for which the “inhibition at 45 nM” value in assay [1] is “the Z isomer was incapable of inhibiting DNA gyrase”.
Turning to `O=C(O)c1cn(C2CC2)c2cc(N3CCNCC3)c(F)cc2c1=O` [CIP, ciprofloxacin], the MIC was 0.016 mg/L (≈ 0.0483 µM) in assay [2] (setting [12]); 0.031 mg/L (≈ 0.0936 µM) in assay [2] (inhibitor, CIP); not above 0.016 mg/L in assay [3]; not above 0.016 mg/L in [4]; 1 mg/L (≈ 3.02 µM) in assay [5]; 0.25 mg/L (≈ 0.754 µM) in assay [6]. Besides, the MIC in [7] was not above 0.016 mg/L; in assay [8], not above 0.016 mg/L; in assay [9], 1 mg/L (≈ 3.02 µM); in assay [10] it was 0.25 mg/L (≈ 0.754 µM).
In the case of `COc1c(NC(=O)c2ccc(NC(=O)c3ccc(NC(=O)[C@H](CC#N)NC(=O)c4ccc(NC(=O)/C(C)=C/c5ccc(O)cc5)cc4)cc3)c(OC)c2O)ccc(C(=O)O)c1O` [compound 1, albicidin], the MIC in assay [2] (setting [12]) is 0.063 mg/L (≈ 0.0747 µM); in assay [2] (Escherichia coli, dark sample, 100% E isomer) it was 0.063 mg/L (≈ 0.0747 µM); in assay [3], not above 0.016 mg/L; in assay [3] (dark sample, 100% E isomer), 0.016 mg/L (≈ 0.019 µM); in assay [4], 0.063 mg/L (≈ 0.0747 µM); in [4] (dark sample, 100% E isomer) it was 0.063 mg/L (≈ 0.0747 µM). Also, the MIC in [5] was 1 mg/L (≈ 1.19 µM); in [5] (dark sample, 100% E isomer) it was 1 mg/L (≈ 1.19 µM); in [6], 0.25 mg/L (≈ 0.297 µM); in assay [6] (dark sample, 100% E isomer), 0.25 mg/L (≈ 0.297 µM); in assay [11], 0.063 mg/L (≈ 0.0747 µM); in assay [7], not above 0.016 mg/L. In addition, the MIC in assay [8] was found to be 0.063 mg/L (≈ 0.0747 µM); in [9], 1 mg/L (≈ 1.19 µM); in [10], 0.25 mg/L (≈ 0.297 µM).
